From patent publication US5786460A (Cheil Foods & Chemicals, Inc., priority 1993, dated 1998)
Converted amounts (≈) assume the structure as drawn.

How the values were obtained:
Experiment in all cases: in vitro antifungal activity, twofold agar dilution method
Assay type in all cases: cell-based
Candida albicans [1] = settings: KCTC1940, KCTC No 1940, potato dextrose agar
Experimental: (§1) The activities were determined by the twofold agar dilution method on potato dextrose agar medium.

Candida albicans [2] = settings: KCTC38245
Experimental: as §1

Candida glabrata = settings: Nakaseomyces glabratus, KCTC1714; KCTC No 1714; potato dextrose agar
Experimental: as §1

Cryptococcus neoformans = settings: KCTC1197, KCTC No 1197, potato dextrose agar
Experimental: as §1

Saccharomyces cerevisiae = settings: KCTC1213, KCTC No 1213, potato dextrose agar
Experimental: as §1

Aspergillus niger = settings: KCTC2119, KCTC No 2119, potato dextrose agar
Experimental: as §1

Microsporum gypseum = settings: Nannizzia gypsea, KCTC1252; KCTC No 1252; potato dextrose agar
Experimental: as §1

Microsporum canis = settings: KCTC11621, KCTC No 11621, potato dextrose agar
Experimental: as §1

Epidennophyton floccosum = system: Epidennophyton floccosum
Experimental: as §1

[3] = system: Trichophyton mentagrophyte; settings: KCTC6085, KCTC No 6085, potato dextrose agar
Experimental: as §1

Trichophyton rubrum = settings: KCTC38484, KCTC No 38484, potato dextrose agar
Experimental: as §1

Fusarium oxysporum = settings: KCTC6084, KCTC No 6084, potato dextrose agar
Experimental: as §1

Rhizopus stolonifer = settings: KCTC6062, KCTC No 6062, potato dextrose agar
Experimental: as §1

## C[C@@H]1[C@H](O)[C@@H](C)/C=C/C=C/C=C/C=C/C=C/C=C/C=C/[C@H](O[C@@H]2O[C@H](C)[C@@H](O)[C@H](N)[C@@H]2O)C[C@@H]2O[C@](O)(C[C@@H](O)C[C@@H](O)[C@H](O)CC[C@@H](O)C[C@@H](O)CC(=O)O[C@H]1C)C[C@H](O)[C@H]2C(=O)O [Amphotericin-B]
Candida albicans [1]
  MIC: 0.782 µg/mL (≈ 0.846 µM)
Candida albicans [2]
  MIC: 0.782 µg/mL (≈ 0.846 µM)
Candida glabrata
  MIC: 0.196 µg/mL (≈ 0.212 µM)
Cryptococcus neoformans
  MIC: 0.098 µg/mL (≈ 0.106 µM)
Saccharomyces cerevisiae
  MIC: 0.098 µg/mL (≈ 0.106 µM)
Aspergillus niger
  MIC: 0.196 µg/mL (≈ 0.212 µM)
Microsporum gypseum
  MIC: 0.196 µg/mL (≈ 0.212 µM)
Microsporum canis
  MIC: 0.391 µg/mL (≈ 0.423 µM)
Epidennophyton floccosum
  MIC: 3.12 µg/mL (≈ 3.38 µM)
[3]
  MIC: 3.12 µg/mL (≈ 3.38 µM)
Trichophyton rubrum
  MIC: 0.782 µg/mL (≈ 0.846 µM)
Fusarium oxysporum
  MIC: 0.196 µg/mL (≈ 0.212 µM)
Rhizopus stolonifer
  MIC: 0.391 µg/mL (≈ 0.423 µM)
